# Source: the supplement of paper PMC10307832
# Assays:
# Assay in all cases: relative viability (nuclei count vs DMSO), 5 days (fraction); higher = more cells survive
# [1] = compound: C1=CC=C(C(=C1)C2=CC=C(C=C2)C3=CSC4=C3C(=C(C(=O)N4)C#N)O)O + CS(=O)(=O)N1CCN(Cc2cc3nc(-c4cccc5[nH]ncc45)nc(N4CCOCC4)c3s2)CC1 [Pictilisib] (partner 1 µM)
# Summary of the method: (§1)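 After 5 days of treatment, lung cancer cells in 1536-well plates were fixed and stained in a single step (final 0.05% Triton X-100, 1% formaldehyde, 1 ug/ml Hoechst) and their nuclei counted on 4× images. Treatment had been applied by pin tool the day after seeding as one drug alone or as a fixed anchor-drug dose with five library-drug doses (not always all listed) in √10 steps. Relative viability is the nuclei count of treated wells divided by that of vehicle wells, and values are medians of duplicate plates.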
# [2] = compound: O=C(CCCCCCNC(=O)c1cnc(N(c2ccccc2)c2ccccc2)nc1)NO [Ricolinostat] + CC(=O)Nc1cccc(-n2c(=O)n(C3CC3)c(=O)c3c(Nc4ccc(I)cc4F)n(C)c(=O)c(C)c32)c1 [Trametinib] (partner 0.02 µM)
# Summary of the method: as §1
# [3] = compound: O=C(CCCCCCNC(=O)c1cnc(N(c2ccccc2)c2ccccc2)nc1)NO [Ricolinostat] + CC(=O)c1c(C)c2cnc(Nc3ccc(N4CCNCC4)cn3)nc2n(C2CCCC2)c1=O [Palbociclib] (partner 0.5 µM)
# Summary of the method: as §1
# Ricolinostat + AZD7762 = compound: O=C(CCCCCCNC(=O)c1cnc(N(c2ccccc2)c2ccccc2)nc1)NO [Ricolinostat] + NC(=O)Nc1cc(-c2cccc(F)c2)sc1C(=O)N[C@H]1CCCNC1 [AZD7762] (partner 0.2 µM)
# Summary of the method: as §1
Cell Line,relative viability ([1]; first compound 0.253 µM),relative viability ([1]; first compound 0.8 µM),relative viability ([1]; first compound 2.53 µM),relative viability ([1]; first compound 8 µM),relative viability ([2]; first compound 0.253 µM),relative viability ([2]; first compound 0.8 µM),relative viability ([2]; first compound 2.53 µM),relative viability ([3]; first compound 0.253 µM),relative viability ([3]; first compound 0.8 µM),relative viability ([3]; first compound 2.53 µM),relative viability (Ricolinostat + AZD7762; first compound 0.253 µM),relative viability (Ricolinostat + AZD7762; first compound 0.8 µM),relative viability (Ricolinostat + AZD7762; first compound 2.53 µM),relative viability ([1]; first compound 0.08 µM),relative viability ([2]; first compound 0.08 µM),relative viability ([3]; first compound 0.08 µM),relative viability (Ricolinostat + AZD7762; first compound 0.08 µM)
NCI-H1395,0.533,0.631,0.545,0.643,0.957,1.08,1.2,0.603,0.662,0.702,0.362,0.395,0.37,–,–,–,–
BEN,0.597,0.437,0.547,0.428,0.905,0.828,0.796,0.474,0.499,0.451,0.754,0.559,0.576,0.547,0.816,0.461,0.534
RERF-LC-KJ,0.538,0.567,0.466,0.493,0.836,0.805,0.715,1.21,1.25,0.902,0.916,0.832,0.894,0.576,0.869,1.02,0.864
HOP-62,0.773,0.673,0.837,0.434,0.391,0.384,0.432,0.406,0.355,0.416,0.521,0.53,0.277,0.774,0.335,0.457,0.352
LOU-NH91,0.538,0.51,0.515,0.512,0.783,0.763,0.864,0.526,0.587,0.514,0.788,0.796,0.739,0.482,–,–,–
EPLC-272H,0.251,0.264,0.299,0.292,0.284,0.313,0.26,0.325,0.332,0.237,0.194,0.178,0.141,–,–,–,–
H3255,0.514,0.447,0.536,0.467,0.644,0.677,0.76,0.307,0.292,0.33,0.759,0.75,0.849,0.483,0.571,0.336,0.717
NCI-H650,0.975,0.841,0.86,0.91,0.908,0.909,0.874,0.356,0.32,0.253,0.993,0.849,0.579,0.978,0.853,0.33,0.706
NCI-H1944,0.39,0.317,0.343,0.357,0.469,0.442,0.407,0.307,0.309,0.297,0.483,0.354,0.21,0.349,0.46,0.332,0.463
NCI-H23,0.462,0.563,0.458,0.396,0.414,0.428,0.406,0.509,0.448,0.615,0.281,0.223,0.154,0.439,0.445,0.532,0.332
NCI-H358,0.344,0.329,0.342,0.414,0.135,0.173,0.176,0.147,0.173,0.165,0.519,0.414,0.312,0.415,0.125,0.151,–
HCC-366,0.154,0.0996,0.174,0.164,0.32,0.314,0.342,0.335,0.344,0.257,0.27,0.264,0.172,0.196,0.372,0.383,0.266
NCI-H2405,0.439,0.443,0.436,0.295,0.682,0.666,0.82,0.554,0.542,0.571,0.781,0.738,0.76,0.379,0.591,0.517,0.698
NCI-H441,0.596,0.593,0.546,0.452,0.521,0.629,0.697,0.233,0.2,0.234,1.06,0.924,0.801,0.437,0.259,0.213,0.982
NCI-H322M,0.495,0.494,0.477,0.499,0.539,0.611,0.564,0.493,0.478,0.52,0.663,0.512,0.49,0.511,0.431,0.495,0.432
